These results are taken from patent US7485743B2, “Oligomeric ketone compounds” (BTG International Limited, priority 2004, dated 2009).

Molecules are shown by their SMILES.

Data set [1] in a line: Ketogenic effect after oral administration: β-hydroxybutyrate concentrations in rat plasma. It counts as in vivo, rat (male Sprague-Dawley). The note with it: 300 mg/kg po; for Maximum increase of plasma concentration of β-hydroxybutyrate: versus vehicle baseline. As to the method: Male Sprague-Dawley rats (weight range 200-250 g) were obtained from Charles River, Margate, Kent. The rats were group housed in polypropylene cages at a temperature of 21 ±4° C. and 55 ±20% humidity and on a standard light/dark cycle. Animals had free access to a standard pelleted rat diet and tap water at all times. Animals were accustomed to these conditions for at least one week before experimentation.
Animals were killed by CO2 and blood (approx, 5 ml) was collected by cardiac puncture at various times after dosing. Blood was collected into EDTA-coated plasma collection tubes (Sarstedt 5 ml K2E tubes) and kept on ice prior to centrifugation. Tubes were centrifuged in an Eppendorf 570R centrifuge at 4° C. for 5 minutes at 2500 rpm (1000 g). Following plasma separation, extreme care was taken to avoid contamination with red blood cells and samples were re-centrifuged as necessary. Plasma samples were initially frozen on dry ice and transferred to a −75° C. freezer until required for analysis.
Sodium DL-β-hydroxybutyrate (H-6501 Lot 111K2618) was obtained from Sigma. A stock solution of β-bydroxybutyrate (40 mM DL racemate equivalent to 20 mM D-isomer) was prepared in 0.9% saline solution, kept at 4° C. and used to generate appropriate dilutions for an assay standard curve.
Commercial clinical assay kits for the determination of D-β-hydroxybutyrate were obtained from Random Laboratories (Antrim, UK). Kits were obtained in two pack sizes (Ranbut RB1007: 10×10 ml and RB1008: 10×50 ml) but were otherwise identical. Each kit contained a standard solution of 1 mM D-β-hydroxybutyrate that was assayed every time to confirm the assay was performing correctly. The kit relies on measuring the appearance of NADH via the activity of β-hydroxybutyrate dehydrogenase measured as an increase of OD340 nm. An alkaline pH is necessary to drive the reaction equilibrium towards the production of NADH and acetoacetate.
The protocol supplied with the Ranbut kits was for a discrete (cuvette-based) spectrophotometric assay, so the protocol was modified for suitability with a 96-well microplate format using blank, flat-bottomed microplates (Greiner PS 655101 Lot 98 35 01). Assays were performed in triplicate using a sample volume of10 μl to each well for the standards and usually 20 μl for plasma samples (though this was varied for some experiments). Standard dilutions and samples were pipetted a single plate at a time and preincubated at 37° C. for 15 minutes in the sample compartment of a Molecular Devices VERSAMAX tunable microplate reader. The appropriate volume of assey reagent was reconstituted, according to instructions, using distilled water and preincubated at 37° C. for 15 minutes using a static water bath. The assay plate was ejected and the reaction started by adding rapidly 250 μl of reagent to each well (avoiding air bubbles). The plate was reloaded, mixed and then the change in OD340 nm followed in kinetic mode with a reading at every 15 seconds for a total of 2 minutes. The reaction rate was then determined from the OD increase over a suitable 1 minute period, after allowing a necessary period for the reaction rate to settle. The rate between 45 seconds and 105 seconds was used as the default measuring period, though occasionally a different period was used as necessary (e.g. if an aberrant reading was obtained at one of these time-points).
For analysis of spectrophotometric rate assays, linear regression analysis to the standard curve was used followed by interpolation of unknown values (GraphPad Prism 3.0) For comparison of treatment groups with vehicle, multiple 2-tailed T-tests were used and p<0.05 was taken to indicate statistical significance.

The procedure of data set [2]:
Control animals received the appropriate vehicle (deionized water at 1 ml/kg) via the same route.

Turning to `C[C@@H](O)CC(=O)[O-].[Na+]` [KTX 0101, sodium (R)-3-hydroxybutyrate], in data set [1], the “Time at which the maximum increase of plasma β-hydroxybutyrate was observed” value came to 15 min, the “Time by which plasma β-hydroxybutyrate returned to control values” is no more than 2 h, the “Time until which plasma β-hydroxybutyrate plateaued at the maximum level” value worked out at 30 min and the “Maximum increase of plasma concentration of β-hydroxybutyrate” value is on record as 0.4 mM. Further, the “Level of plasma β-hydroxybutyrate at 1 h” value in data set [1] (1 h after dosing) is “still significantly (P<0.05) elevated”.

Consider `CC(=O)CCOC(=O)C[C@@H](C)OC(=O)C[C@@H](C)OC(=O)C[C@@H](C)O` [KTX 0204, 2-keto-butan-4-ol ester of (R)-3-hydroxybutyrate triolide], for which, in data set [2] (deionized water, dosing solution for gavage), the “Solubility in deionized water and nature of the solution” value is “mostly soluble in deionized water and produced a cloudy and stable solution”. Also, in data set [2] (isolated product (syrup)), the Solubility in water entry was “water-soluble”. Further, in data set [1], the “Time at which the maximum increase of plasma β-hydroxybutyrate was observed” value was 30 min, the “Time by which plasma β-hydroxybutyrate returned to control values” was no more than 1 h and the “Maximum increase of plasma concentration of β-hydroxybutyrate” value is 0.25 mM.
